Data published in patent US20070275981A1, “(Hetero)Cyclycarboxamides for Controlling Pathogenic Fungi” (priority 2004, published 2007).

Experiments:
Plasmopara viticola [1] = experiment: Activity against Peronospora of grapevines caused by Plasmopara viticola, 7 day protective application (Use Example 5); assay type: in vivo, Plasmopara viticola on potted grapevines; conditions: 250 ppm active compound, untreated plants 50% infected
Method: (§1) For the use examples 4 to 7, the active compounds were prepared as a stock solution comprising 25 mg of active compound which was made up with a mixture of acetone and/or DMSO and the emulsifier Uniperol® EL in a volume ratio of solvent/emulsifier of 99:1 to 10 ml. The mixture was then made up to 100 ml with water. This stock solution was diluted to the active compound concentration stated below using the solvent/emulsifier/water mixture described.
Leaves of potted grapevines were sprayed to runoff point with an aqueous suspension having the concentration of active compound stated below. To be able to assess the persistency of the substances, the plants were, after the spray coating had dried on, placed in a greenhouse for 7 days. The undersides of the leaves were then inoculated with an aqueous sporangia suspension of Plasmopara viticola. The grapevines were then placed initially for 48 hours in a water vapor-saturated chamber at 24° C. and then for 5 days in the greenhouse at temperatures between 20 and 30° C. After this time, the plants were again placed in a humid chamber for 16 hours, to accelerate sporangiophore eruption. The extent of the development of the infection on the undersides of the leaves was then determined visually.

Plasmopara viticola [2] = experiment: Activity against Peronospora of grapevines caused by Plasmopara viticola (Use Example 1, inoculation the next day); assay type: in vivo, Plasmopara viticola on potted grapevines; conditions: 250 ppm active compound, spray to runoff, inoculated next day; untreated plants 80% infected
Method: For the use examples 1 to 3, the active compounds were prepared as a stock solution comprising 0.25% by weight of active compound in acetone or dimethyl sulfoxide (DMSO). 1% by weight of the emulsifier Uniperol® EL (wetting agent having emulsifying and dispersant action based on ethoxylated alkylphenols) was added to this solution, and the mixture was diluted with water to the desired concentration.
Leaves of potted grapevines were sprayed to runoff point with an aqueous suspension having the concentration of active compounds stated below. The next day, the undersides of the leaves were inoculated with an aqueous sporangia suspension of Plasmopara viticola. The grapevines were then initially placed in a water vapor-saturated chamber at 24° C. for 48 hours and then in a greenhouse at temperatures between 20 and 30° C. for 5 days. After this time, the plants were again placed in a humid chamber for 16 hours to promote sporangiophore eruption. The extent of the development of the infection on the undersides of the leaves was then determined visually.

[3] = system: Erysiphe [syn. Blumeria] graminis forma specialis. tritici; experiment: Activity against mildew of wheat caused by Erysiphe [syn. Blumeria] graminis forma specialis. tritici (Use Example 7); assay type: in vivo; conditions: 250 ppm active compound, protective 24 h, 7 days; untreated plants 70% infected
Method: as §1
Leaves of potted wheat seedlings of the cultivar “Kanzler” were sprayed to runoff point with an aqueous suspension having the concentration of active compound stated below. 24 h after the spray coating had dried on, the leaves were dusted with spores of mildew of wheat (Erysiphe [syn. Blumeria] graminis forma specialis. tritici). The plants were then placed in a greenhouse at temperatures between 20 and 24° C. and 60 to 90% relative atmospheric humidity. After 7 days, the extent of the fungal infection was determined visually by the infection of the leaf area.

Botrytis cinerea = experiment: Activity against gray mold on bell pepper leaves caused by Botrytis cinerea, protective application (Use Example 6); assay type: in vivo; conditions: 63 ppm active compound, 5 days, untreated plants 90% affected
Method: The mixture was then made up to 100 ml with water.
The next day, the treated plants were inoculated with an aqueous spore suspension of Botrytis cinerea in a 2% strength aqueous biomold solution having a density of 1.7×10^6 spores/ml. The plants were then placed in a dark acclimatized chamber at temperatures between 22 and 24° C. and high atmospheric humidity. After 5 days, the extent of the fungal infection could be determined visually by the infection of the leaf area.

Cc1nn(C)cc1C(=O)Nc1cc(C(F)(F)F)nn1-c1ccccc1 [example 10]
infection (Plasmopara viticola [1]): at most 20%

Cc1ccsc1C(=O)Nc1cc(C(F)(F)F)nn1-c1ccc(Br)cc1 [example 18]
infection (Plasmopara viticola [2]): at most 20%

Cc1ccc(-n2nccc2NC(=O)c2cccnc2Cl)cc1 [example 31]
infection (leaf area) [3]: at most 15%

Cn1cc(C(=O)Nc2ccnn2-c2ccc(-c3ccccc3)cc2)c(C(F)(F)F)n1 [example 43]
infection (leaf area) (Botrytis cinerea): at most 10%
